One compound from article PMC6152226, “Composition and Antioxidant, Antienzymatic and Antimicrobial Activities of Volatile Molecules from Spanish Salvia lavandulifolia (Vahl) Essential Oils” (Molecules : A Journal of Synthetic Chemistry and Natural …, 2017) can be followed below.

As usually defined, the MIC is the lowest concentration found to suppress growth. A word on the MFC: it is the lowest tested concentration that kills the fungus rather than only halting it. One may read the IC50 as the point on the concentration scale where inhibition reaches its midpoint. In general, MBC refers to the smallest concentration meeting the test's criterion for killing.

“And” between values parts separate entries of the source, which are not always exact repeats. Equal entries are not always repeated.

Experiment [1] has as its system Candida albicans ATCC 10231. The experiment can be described thus: Broth microdilution MIC and MFC. It counts as cell-based. Here is the method: (§1) The following test microorganisms used in this work were acquired from Sigma-Aldrich: Pseudomonas aeruginosa ATCC 9027, Escherichia coli ATCC 8739, Staphylococcus aureus ATCC 6538, and Candida albicans ATCC 10231. The stock cultures were preserved in TSB or YPD with 15% glycerol, for bacteria and yeast cells, respectively, at −80 °C. Isolated colonies from an 18- to 24-h agar plate were transferred to MHB for bacteria and RPMI-1640 for C. albicans.
(§2) MIC were determined using the broth microdilution method in 96-well microplates, according to the M07-A10 [69] standard for bacteria and the M27-A3 [70] for Candida. Briefly, two-fold dilutions of a 40 µL/mL SlEOs were prepared to obtain a final concentration range of 0.08–20 µL/mL with 0.5% Tween®80 and 2.5% DMSO. The antimicrobial activities of main compounds were also tested in the concentration range of 0.12–15 mM with 0.5% Tween®80 and 2.5% DMSO as solvent. The final strain concentration was 5 × 10^5 CFU/mL in MHB for the bacteria and 0.5−2.5 × 10^3 in RPMI-1640 for the yeast. These plates were incubated for 24 h for bacteria and 48 h for Candida, both at 35 ± 1 °C, under aerobic conditions on a plate shaker at 100 rpm. Streptomycin (0.06–8.00 µg/mL) and fluconazole (0.13–16 µg/mL) were used as reference antibacterial and antifungal compound, respectively. […] MIC is defined as the lowest concentration of EO or individual compound with no visible growth of microorganisms, at the end of the incubation period. […] All determinations were carried out in triplicate.
(Broth dilution looks for growth in wells or tubes with falling amounts of substance.)

A short description of experiment [2]: Reducing power (RdP) method. To be noted: individual compounds; maximum assay concentration 100 mM. Here is the method:
(§3) Five antioxidant methods were performed with SlEOs and their main individual compounds in triplicate. In the oxygen radical absorbance capacity (ORAC) assay, peroxyl radicals are produced by 2,2′-Azobis(2-methylpropionamidine) dihydrochloride (AAPH), which reacts with fluorescein giving a non-fluorescent compound [61]. The antioxidants are able to scavenge these peroxyl radicals. Trolox was used as the reference antioxidant. The 2,2-diphenyl-1-picrylhydrazyl (DPPH) and 2,2′-azino-bis(3-ethylbenzothiazoline-6-sulphonic acid) (ABTS) methods measure the bleaching produced by the reduction of the coloured DPPH and ABTS radicals. Trolox was used as the reference antioxidant. The RdP method measure the ability to reduce ferric ions, according to the method of Oyaizu. Ascorbic acid was the reference antioxidant used in this method. The ChP method measured the ability to chelate Fe^2+ ion, following the method of Miguel et al.. EDTA was used as reference antioxidant. The SlEOs were diluted in 100% ethanol in the DPPH, ABTS, RdP and ChP methods, whereas in the ORAC method, SlEOs were diluted in 15% ethanol to obtain a final concentration of 5% ethanol in the reaction medium. All measurements were made at the end-point of the reaction, except in the ORAC method (Figure S5).

For the next experiment, the target named is T1, AChE VI-S (Electrophorus electricus, UniProt O42275).
T1 construct: purchased Sigma-Aldrich
The experiment can be described thus: biochemical. Here is the method: AChE VI-S from Electrophorus electricus was purchased from Sigma-Aldrich. AChE inhibitory activity was measured in triplicate using a 96-well microplate reader at 25 °C, according to Ellman’s method. This enzyme hydrolyzes acetylthiocholine to acetate and thiocholine, which reacts with 5,5-dithio-bis-(2-nitrobenzoic acid) (DTNB) producing a coloured compound with absorbance at 412 nm. The reaction was measured for 10 min at 25 °C, using a 96-well microplate reader. SlEOs were diluted in 15% ethanol, to obtain a final concentration of 5% ethanol in the reaction medium.
(§4) The DI in both antienzymatic assays were calculated using Equation (1):(1) DI (%)= ν0−νi/ν0 × 100 where v0 and v1 are the steady state rates without and with inhibitor, respectively. The inhibitions of LOX were reported as DI at 150 µg/mL of each SlEO. […] To calculate the IC50 values, data of DI (%) of seven different concentrations of each SlEO were plotted and fitted by non-linear regression according to Equation (2) using Sigma Plot software (systatsoftware.com) (Figure S6). The inhibitions of LOX and AChE by individual compounds were reported as IC50 or DI, depending on their inhibition capacities and solubilities.
(§5) (2) DI (%)= DImax [I]0/IC50+ [I]0

Experiment [3] can be described thus: Chelating power (ChP) method. To be noted: individual compounds; maximum assay concentration 100 mM. Here is the method: as §3
Another experiment in a line: DPPH radical method. To be noted: individual compounds; maximum assay concentration 100 mM. Here is the method: as §3
For orientation: DPPH is a stable violet radical that fades when it is reduced.

Experiment [4] can be described thus: Oxygen radical absorbance capacity (ORAC) assay. The note with it: individual compounds, maximum assay concentration 100 mM. Here is the method:
as §3

The next experiment in a line: ABTS radical method. The note with it: individual compounds; maximum assay concentration 100 mM. Here is the method:
as §3

In a further experiment the target is T2, LOX (Glycine max, UniProt P08170).
T2 construct: purchased Sigma-Aldrich
Nature of the experiment: LOX inhibition assay. It counts as biochemical, Glycine max (soybean). To be noted: at 514.2 µg/mL; could not reach 50% inhibition. Here is the method: A LOX preparation from Glycine max (soybean) was acquired from Sigma-Aldrich. LOX inhibitory activity was determined as previously reported, based on the absorption at 234 nm of the hydroperoxyde conjugated dienes (ε = 25,000 M^−1 cm^−1), which are generated from the oxidation of linoleic acid in the presence of oxygen and LOX. This assay was carried out on a double beam Lambda 35 spectrophotometer (PerkinElmer, Madrid, Spain) with the UV-Winlab software, at 25 °C.
as §4, §5

For experiment [5], the system named is Staphylococcus aureus ATCC 6538. Nature of the experiment: Broth microdilution MIC and MBC. It is filed as cell-based. Here is the method:
as §1, §2

Experiment [6] deals with Escherichia coli ATCC 8739. The experiment can be described thus: Broth microdilution MIC and MBC. It is filed as cell-based. Here is the method:
as §1, §2

T1 sequence (O42275 24-633): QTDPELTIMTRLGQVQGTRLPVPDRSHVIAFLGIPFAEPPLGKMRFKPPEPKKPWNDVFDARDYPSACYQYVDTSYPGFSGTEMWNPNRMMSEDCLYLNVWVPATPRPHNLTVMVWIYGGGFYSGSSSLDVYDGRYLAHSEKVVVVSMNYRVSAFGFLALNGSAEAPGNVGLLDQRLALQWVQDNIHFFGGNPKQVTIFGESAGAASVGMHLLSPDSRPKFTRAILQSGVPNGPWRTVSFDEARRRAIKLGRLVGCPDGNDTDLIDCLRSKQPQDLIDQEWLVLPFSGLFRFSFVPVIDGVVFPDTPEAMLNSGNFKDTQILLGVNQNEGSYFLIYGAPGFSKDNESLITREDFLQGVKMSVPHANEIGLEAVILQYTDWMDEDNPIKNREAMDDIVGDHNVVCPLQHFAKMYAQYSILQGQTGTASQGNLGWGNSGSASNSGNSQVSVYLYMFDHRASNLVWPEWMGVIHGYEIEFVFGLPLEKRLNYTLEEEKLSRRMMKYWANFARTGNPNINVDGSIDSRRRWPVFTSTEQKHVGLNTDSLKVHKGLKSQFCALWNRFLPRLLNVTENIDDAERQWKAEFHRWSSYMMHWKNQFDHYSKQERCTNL
T2 sequence (P08170 whole entry): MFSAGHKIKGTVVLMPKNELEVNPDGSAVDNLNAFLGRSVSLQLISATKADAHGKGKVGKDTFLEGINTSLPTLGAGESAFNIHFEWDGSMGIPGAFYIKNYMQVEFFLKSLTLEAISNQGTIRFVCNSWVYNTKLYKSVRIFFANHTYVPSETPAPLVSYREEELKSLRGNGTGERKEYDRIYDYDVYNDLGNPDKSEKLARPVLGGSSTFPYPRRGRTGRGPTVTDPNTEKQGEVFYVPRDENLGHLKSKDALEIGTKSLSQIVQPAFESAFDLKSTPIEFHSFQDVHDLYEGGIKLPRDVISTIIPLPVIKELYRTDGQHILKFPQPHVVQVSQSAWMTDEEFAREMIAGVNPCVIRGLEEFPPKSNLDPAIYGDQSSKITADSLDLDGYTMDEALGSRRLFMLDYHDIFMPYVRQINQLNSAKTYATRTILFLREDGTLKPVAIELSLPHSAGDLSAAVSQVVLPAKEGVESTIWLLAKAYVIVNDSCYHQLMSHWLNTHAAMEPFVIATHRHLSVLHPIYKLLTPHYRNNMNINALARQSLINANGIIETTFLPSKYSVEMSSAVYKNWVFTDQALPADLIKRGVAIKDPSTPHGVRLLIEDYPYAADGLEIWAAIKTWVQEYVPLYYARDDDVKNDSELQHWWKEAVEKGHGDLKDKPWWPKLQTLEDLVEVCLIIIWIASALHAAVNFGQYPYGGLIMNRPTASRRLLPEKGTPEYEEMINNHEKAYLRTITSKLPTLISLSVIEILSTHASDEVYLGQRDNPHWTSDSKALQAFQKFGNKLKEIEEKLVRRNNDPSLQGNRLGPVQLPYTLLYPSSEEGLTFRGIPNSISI

`CC12CCC(CC1)C(C)(C)O2` [1,8-Cineole]: the MIC in experiment [1] (ATCC10231, 48 h, read-out: MIC) was greater than 2300 µg/mL; in experiment [5] (ATCC6538, 24 h, read-out: MIC), greater than 2300 µg/mL; in [6] (ATCC8739, 24 h, read-out: MIC), greater than 2300 µg/mL. In experiment [1] (ATCC10231, read-out: MFC), the MFC was greater than 2300 µg/mL. The RdP result in experiment [2] is “N/D (Activity lower than 0.05 units at a maximum assay concentration of 100 mM)”. In addition, the IC50 against AChE VI-S was 228 µM and 227 µM. In addition, the ChP in experiment [3] worked out at 1.1 ± 0.1 µmol EDTAE/mmol X. In addition, the DPPH result in “DPPH radical method” is “N/D (Activity lower than 0.05 units at a maximum assay concentration of 100 mM)”. Also, the ORAC entry in experiment [4] was “N/D (Activity lower than 0.05 units at a maximum assay concentration of 100 mM)”; in [4] (listed as 1,8-cineole), “did not show any ORAC antioxidant activity”. Moreover, in “ABTS radical method”, the ABTS entry is on record as “N/D (Activity lower than 0.05 units at a maximum assay concentration of 100 mM)”. Further, on LOX, the “DI (%) of LOX” value was found to be 30.9 ± 1.1%. In addition, the MBC was greater than 2300 µg/mL in experiment [5] (ATCC6538, read-out: MBC) and greater than 2300 µg/mL in experiment [6] (ATCC8739, read-out: MBC).
